Measurements reported in the supplement of paper PMC11061612.

Legend:
Prexasertib = compound: COc1cccc(OCCCN)c1-c1cc(Nc2cnc(C#N)cn2)n[nH]1 [Prexasertib]; settings: max 1 µM
Outline: (§1)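 Cancer cell lines were seeded into 1536-well plates in 7.5 μl medium (DMEM/F12 or RPMI, 10% FBS), held 24 hours at 37°C and 5% CO2, and dosed for 72 hours with final DMSO typically 0.2%. Luminescence from CellTiter-Glo 2.0, scaled between blank-well and DMSO-well means, served as viability. The single-agent IC50 was obtained from dose-response fits with a non-linear mixed effects model, each fit being a two-parameter logistic curve.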

Savolitinib = compound: C[C@@H](c1ccc2nccn2c1)n1nnc2ncc(-c3cnn(C)c3)nc21 [Savolitinib]; settings: max 1 µM
Outline: as §1

Gefitinib = compound: COc1cc2ncnc(Nc3ccc(F)c(Cl)c3)c2cc1OCCCN1CCOCC1 [Gefitinib]; settings: max 10 µM
Outline: as §1

MK-2206 = compound: NC1(c2ccc(-c3nc4ccn5c(=O)[nH]nc5c4cc3-c3ccccc3)cc2)CCC1 [MK-2206]; settings: max 10 µM
Outline: as §1

AZD7648 = compound: Cc1cc2ncnn2cc1Nc1ncc2c(n1)n(C1CCOCC1)c(=O)n2C [AZD7648]; settings: max 10 µM
Outline: as §1

Dasatinib = compound: CC1=C(C(=CC=C1)Cl)NC(=O)C2=CN=C(S2)NC3=CC(=NC(=N3)C)N4CCN(CC4)CCO [Dasatinib]; settings: max 2 µM
Outline: as §1

AZD5153 = compound: COc1nnc2ccc(N3CCC(c4ccc(OCCN5CCN(C)C(=O)[C@H]5C)cc4)CC3)nn12 [AZD5153]; settings: max 1 µM
Outline: as §1

AZD8186 = compound: C[C@@H](Nc1cc(F)cc(F)c1)c1cc(C(=O)N(C)C)cc2c(=O)cc(N3CCOCC3)oc12 [AZD8186]; settings: max 10 µM
Outline: as §1

Olaparib = compound: O=C(c1cc(Cc2n[nH]c(=O)c3ccccc23)ccc1F)N1CCN(C(=O)C2CC2)CC1 [Olaparib]; settings: max 10 µM
Outline: as §1

AZD4320 = compound: CN(CC[C@H](CSC1=CC=CC=C1)NC2=C(C=C(C=C2)S(=O)(=O)NC(=O)C3=CC=C(C=C3)N4CCC(CC4)[C@H](C5=CC=CC=C5C6=CC=C(C=C6)Cl)O)S(=O)(=O)C(F)(F)F)CCO [AZD4320]; settings: max 1 µM
Outline: as §1

Palbociclib = compound: CC(=O)c1c(C)c2cnc(Nc3ccc(N4CCNCC4)cn3)nc2n(C2CCCC2)c1=O [Palbociclib]; settings: max 10 µM
Outline: as §1

AZD1390 = compound: CC(C)n1c(=O)n(C)c2cnc3cc(F)c(-c4ccc(OCCCN5CCCCC5)nc4)cc3c21 [AZD1390]; settings: max 0.3 µM
Outline: as §1

Carboplatin = compound: C1CC(C1)(C(=O)[O-])C(=O)[O-].N.N.[Pt+2] [Carboplatin]; settings: max 10 µM
Outline: as §1

Lapatinib = compound: CS(=O)(=O)CCNCc1ccc(-c2ccc3ncnc(Nc4ccc(OCc5cccc(F)c5)c(Cl)c4)c3c2)o1 [Lapatinib]; settings: max 10 µM
Outline: as §1

Gemcitabine = compound: Nc1ccn([C@@H]2O[C@H](CO)[C@@H](O)C2(F)F)c(=O)n1 [Gemcitabine]; settings: max 0.3 µM
Outline: as §1

Doxorubicin = compound: COc1cccc2c1C(=O)c1c(O)c3c(c(O)c1C2=O)C[C@@](O)(C(=O)CO)C[C@@H]3O[C@H]1C[C@H](N)[C@H](O)[C@H](C)O1 [Doxorubicin]; settings: max 1 µM
Outline: as §1

Paclitaxel = compound: CC(=O)O[C@H]1C(=O)[C@@]2(C)[C@H]([C@H](OC(=O)c3ccccc3)[C@]3(O)C[C@H](OC(=O)[C@H](O)[C@@H](NC(=O)c4ccccc4)c4ccccc4)C(C)=C1C3(C)C)[C@]1(OC(C)=O)CO[C@@H]1C[C@@H]2O [Paclitaxel]; settings: max 3 µM
Outline: as §1

Alisertib = compound: COc1cc(Nc2ncc3c(n2)-c2ccc(Cl)cc2C(c2c(F)cccc2OC)=NC3)ccc1C(=O)O [Alisertib]; settings: max 10 µM
Outline: as §1

AZD0156 = compound: CN(C)CCCOc1ccc(-c2ccc3ncc4c(c3c2)n(C2CCOCC2)c(=O)n4C)cn1 [AZD0156]; settings: max 3 µM
Outline: as §1

AZD5363 = compound: C1CN(CCC1(C(=O)N[C@@H](CCO)C2=CC=C(C=C2)Cl)N)C3=NC=NC4=C3C=CN4 [AZD5363]; settings: max 10 µM
Outline: as §1

5-Fluorouracil = compound: O=c1[nH]cc(F)c(=O)[nH]1 [5-Fluorouracil]; settings: max 20 µM
Outline: as §1

AZD6738 = compound: C[C@@H]1COCCN1C2=NC(=NC(=C2)C3(CC3)[S@](=N)(=O)C)C4=C5C=CNC5=NC=C4 [AZD6738]; settings: max 10 µM
Outline: as §1

Trametinib = compound: CC(=O)Nc1cccc(-n2c(=O)n(C3CC3)c(=O)c3c(Nc4ccc(I)cc4F)n(C)c(=O)c(C)c32)c1 [Trametinib]; settings: max 1 µM
Outline: as §1

Taselisib = compound: Cc1nc(-c2cn3c(n2)-c2ccc(-c4cnn(C(C)(C)C(N)=O)c4)cc2OCC3)n(C(C)C)n1 [Taselisib]; settings: max 10 µM
Outline: as §1

AZD1775 = compound: C=CCn1c(=O)c2cnc(Nc3ccc(N4CCN(C)CC4)cc3)nc2n1-c1cccc(C(C)(C)O)n1 [AZD1775]; settings: max 3 µM
Outline: as §1

SN-38 = compound: CCc1c2c(nc3ccc(O)cc13)-c1cc3c(c(=O)n1C2)COC(=O)[C@]3(O)CC [SN-38]; settings: max 0.3 µM
Outline: as §1

SRA737 = compound: N#Cc1cnc(Nc2cc(NC[C@H]3CNCCO3)c(C(F)(F)F)cn2)cn1 [SRA737]; settings: max 10 µM
Outline: as §1

Crizotinib = compound: C[C@@H](Oc1cc(-c2cnn(C3CCNCC3)c2)cnc1N)c1c(Cl)ccc(F)c1Cl [Crizotinib]; settings: max 10 µM
Outline: as §1

[1] = compound: O=C(Nc1ccc2[nH]nc(-c3ccncc3)c2c1)[C@@H]1CCN(CC(=O)N2CCN(c3ccc(-c4ncccn4)cc3)CC2)C1; settings: max 5 µM
Outline: as §1

Venetoclax = compound: CC1(C)CCC(CN2CCN(c3ccc(C(=O)NS(=O)(=O)c4ccc(NCC5CCOCC5)c([N+](=O)[O-])c4)c(Oc4cnc5[nH]ccc5c4)c3)CC2)=C(c2ccc(Cl)cc2)C1 [Venetoclax]; settings: max 1 µM
Outline: as §1

Selumetinib = compound: Cn1cnc2c(F)c(Nc3ccc(Br)cc3Cl)c(C(=O)NOCCO)cc21 [Selumetinib]; settings: max 10 µM
Outline: as §1

AZD2811 = compound: CCN(CCO)CCCOc1ccc2c(Nc3cc(CC(=O)Nc4cccc(F)c4)[nH]n3)ncnc2c1 [AZD2811]; settings: max 1 µM
Outline: as §1

SG3199 = compound: CC1=CN2[C@@H](C1)C=NC3=CC(=C(C=C3C2=O)OC)OCCCCCOC4=C(C=C5C(=C4)N=C[C@@H]6CC(=CN6C5=O)C)OC [SG3199]; settings: max 0.001 µM
Outline: as §1

AZD5991 = compound: Cc1c2c(nn1C)CSCc1cc(n(C)n1)CSc1cc(c3ccccc3c1)OCCCc1c(C(=O)O)n(C)c3c-2c(Cl)ccc13 [AZD5991]; settings: max 1 µM
Outline: as §1

Etoposide = compound: COc1cc([C@@H]2c3cc4c(cc3[C@@H](O[C@@H]3O[C@@H]5CO[C@@H](C)O[C@H]5[C@H](O)[C@H]3O)[C@H]3COC(=O)[C@H]23)OCO4)cc(OC)c1O [Etoposide]; settings: max 10 µM
Outline: as §1

Cell Line | IC50, cell viability 72 h (Prexasertib) [µM] | IC50, cell viability 72 h (Savolitinib) [µM] | IC50, cell viability 72 h (Gefitinib) [µM] | IC50, cell viability 72 h (MK-2206) [µM] | IC50, cell viability 72 h (AZD7648) [µM] | IC50, cell viability 72 h (Dasatinib) [µM] | IC50, cell viability 72 h (AZD5153) [µM] | IC50, cell viability 72 h (AZD8186) [µM] | IC50, cell viability 72 h (Olaparib) [µM] | IC50, cell viability 72 h (AZD4320) [µM] | IC50, cell viability 72 h (Palbociclib) [µM] | IC50, cell viability 72 h (AZD1390) [µM] | IC50, cell viability 72 h (Carboplatin) [µM] | IC50, cell viability 72 h (Lapatinib) [µM] | IC50, cell viability 72 h (Gemcitabine) [µM] | IC50, cell viability 72 h (Doxorubicin) [µM] | IC50, cell viability 72 h (Paclitaxel) [µM] | IC50, cell viability 72 h (Alisertib) [µM] | IC50, cell viability 72 h (AZD0156) [µM] | IC50, cell viability 72 h (AZD5363) [µM] | IC50, cell viability 72 h (5-Fluorouracil) [µM] | IC50, cell viability 72 h (AZD6738) [µM] | IC50, cell viability 72 h (Trametinib) [µM] | IC50, cell viability 72 h (Taselisib) [µM] | IC50, cell viability 72 h (AZD1775) [µM] | IC50, cell viability 72 h (SN-38) [µM] | IC50, cell viability 72 h (SRA737) [µM] | IC50, cell viability 72 h (Crizotinib) [µM] | IC50, cell viability 72 h [1] [µM] | IC50, cell viability 72 h (Venetoclax) [µM] | IC50, cell viability 72 h (Selumetinib) [µM] | IC50, cell viability 72 h (AZD2811) [µM] | IC50, cell viability 72 h (SG3199) [µM] | IC50, cell viability 72 h (AZD5991) [µM] | IC50, cell viability 72 h (Etoposide) [µM]
LS-513 (Colorectal Carcinoma) | 0.087 | > 1 | > 10 | 2.31 | > 10 | > 2 | 0.334 | > 10 | > 10 | > 1 | 4.87 | > 0.3 | > 10 | 4.21 | 0.0282 | > 1 | 0.07 | 1.45 | > 3 | > 10 | 7.25 | 2.76 | 0.00366 | 1.3 | 0.789 | 0.0426 | 6.76 | 4.09 | 0.304 | > 1 | 0.419 | > 1 | > 0.001 | > 1 | > 10
MDA-MB-157 (Breast Carcinoma) | 0.01 | > 1 | > 10 | > 10 | > 10 | > 2 | 0.398 | > 10 | > 10 | > 1 | > 10 | > 0.3 | > 10 | > 10 | 0.213 | > 1 | 0.132 | > 10 | > 3 | > 10 | 10.6 | 0.926 | > 1 | > 10 | 0.973 | 0.0626 | 1.23 | > 10 | > 5 | > 1 | > 10 | > 1 | > 0.001 | 0.457 | 8.86
